How the values were obtained:
Format in all cases: functional, cell-based
[1] = molecular target: T1, Muscarinic acetylcholine receptor M2 (Rattus norvegicus, UniProt P10980); experiment: Negative allosteric modulation of rat muscarinic acetylcholine receptor M2 expressed in CHO cells assessed as inhibition of acetylcholine-induced calcium mobilization incubated for 150 secs prior to acetylcholine induction by Fluo-4 AM staining-based fluorescence assay
T1 sequence (P10980 whole entry): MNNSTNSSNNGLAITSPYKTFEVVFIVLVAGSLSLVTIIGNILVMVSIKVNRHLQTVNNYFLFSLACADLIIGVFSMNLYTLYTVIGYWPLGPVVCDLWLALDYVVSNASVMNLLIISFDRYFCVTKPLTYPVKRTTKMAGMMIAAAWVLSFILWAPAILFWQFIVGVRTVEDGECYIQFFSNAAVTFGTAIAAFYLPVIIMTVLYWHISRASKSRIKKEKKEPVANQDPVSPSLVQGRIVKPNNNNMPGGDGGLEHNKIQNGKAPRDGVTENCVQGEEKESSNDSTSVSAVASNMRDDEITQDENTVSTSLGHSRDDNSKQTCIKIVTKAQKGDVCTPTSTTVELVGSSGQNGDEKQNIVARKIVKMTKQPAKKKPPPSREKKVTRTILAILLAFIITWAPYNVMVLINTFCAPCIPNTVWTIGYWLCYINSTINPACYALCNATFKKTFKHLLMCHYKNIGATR

[2] = molecular target: T2, Muscarinic acetylcholine receptor M2 (Homo sapiens, UniProt P08172); experiment: Negative allosteric modulation of human muscarinic acetylcholine receptor M2 expressed in CHO cells assessed as inhibition of acetylcholine-induced calcium mobilization incubated for 150 secs prior to acetylcholine induction by Fluo-4 AM staining-based fluorescence assay
T2 sequence (P08172 whole entry): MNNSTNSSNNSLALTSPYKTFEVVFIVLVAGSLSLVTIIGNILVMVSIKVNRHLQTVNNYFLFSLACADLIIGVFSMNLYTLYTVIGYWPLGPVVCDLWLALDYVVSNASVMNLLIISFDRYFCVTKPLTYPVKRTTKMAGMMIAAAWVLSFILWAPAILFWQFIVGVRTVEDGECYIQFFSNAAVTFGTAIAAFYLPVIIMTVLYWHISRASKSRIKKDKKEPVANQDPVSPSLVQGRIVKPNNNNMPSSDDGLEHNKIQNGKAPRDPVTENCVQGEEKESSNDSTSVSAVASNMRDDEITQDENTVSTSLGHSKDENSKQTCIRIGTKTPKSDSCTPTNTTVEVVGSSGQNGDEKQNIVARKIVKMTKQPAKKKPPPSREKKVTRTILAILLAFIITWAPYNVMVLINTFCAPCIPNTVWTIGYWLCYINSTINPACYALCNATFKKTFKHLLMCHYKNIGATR

[3] = molecular target: T3, Muscarinic acetylcholine receptor M1 (Rattus norvegicus, UniProt P08482); experiment: Negative allosteric modulation of rat muscarinic acetylcholine receptor M1 expressed in CHO cells assessed as inhibition of acetylcholine-induced calcium mobilization incubated for 150 secs prior to acetylcholine induction by Fluo-4 AM staining-based fluorescence assay
T3 sequence (P08482 whole entry): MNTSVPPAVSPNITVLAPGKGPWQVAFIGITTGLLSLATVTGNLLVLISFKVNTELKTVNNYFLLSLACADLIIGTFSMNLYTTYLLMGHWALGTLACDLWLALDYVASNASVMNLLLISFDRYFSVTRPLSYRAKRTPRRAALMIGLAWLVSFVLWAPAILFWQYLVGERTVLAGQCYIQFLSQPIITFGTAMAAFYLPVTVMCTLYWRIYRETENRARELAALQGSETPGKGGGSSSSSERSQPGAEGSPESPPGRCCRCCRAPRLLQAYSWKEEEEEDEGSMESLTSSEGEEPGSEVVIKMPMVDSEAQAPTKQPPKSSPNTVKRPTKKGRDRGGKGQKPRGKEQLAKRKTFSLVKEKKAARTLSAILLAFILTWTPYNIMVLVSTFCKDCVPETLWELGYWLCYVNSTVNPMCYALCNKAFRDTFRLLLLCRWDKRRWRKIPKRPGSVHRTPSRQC

[4] = molecular target: Muscarinic acetylcholine receptor M3 (Homo sapiens, UniProt P20309); experiment: Negative allosteric modulation of human muscarinic acetylcholine receptor M3 expressed in CHO cells assessed as inhibition of acetylcholine-induced calcium mobilization incubated for 150 secs prior to acetylcholine induction by Fluo-4 AM staining-based fluorescence assay
Chain of Muscarinic acetylcholine receptor M3 (Homo sapiens, UniProt P20309) (P20309 whole entry): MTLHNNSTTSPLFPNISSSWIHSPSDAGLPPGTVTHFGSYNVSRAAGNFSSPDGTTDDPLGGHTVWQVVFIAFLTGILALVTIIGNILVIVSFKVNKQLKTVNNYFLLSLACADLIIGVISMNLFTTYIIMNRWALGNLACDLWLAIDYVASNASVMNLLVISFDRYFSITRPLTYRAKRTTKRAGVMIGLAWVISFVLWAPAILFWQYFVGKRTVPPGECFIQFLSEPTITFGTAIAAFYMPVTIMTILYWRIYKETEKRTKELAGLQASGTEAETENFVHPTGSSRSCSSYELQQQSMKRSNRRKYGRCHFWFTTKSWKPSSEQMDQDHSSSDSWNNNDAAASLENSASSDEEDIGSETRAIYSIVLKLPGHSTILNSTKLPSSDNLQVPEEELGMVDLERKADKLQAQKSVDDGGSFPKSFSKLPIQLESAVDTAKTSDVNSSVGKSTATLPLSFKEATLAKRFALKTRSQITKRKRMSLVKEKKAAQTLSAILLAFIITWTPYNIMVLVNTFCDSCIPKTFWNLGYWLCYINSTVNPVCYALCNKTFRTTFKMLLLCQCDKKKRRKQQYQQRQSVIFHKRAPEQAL

[5] = molecular target: T4, Muscarinic acetylcholine receptor M4 (Homo sapiens, UniProt P08173); experiment: Negative allosteric modulation of human muscarinic acetylcholine receptor M4 expressed in CHO cells assessed as inhibition of acetylcholine-induced calcium mobilization incubated for 150 secs prior to acetylcholine induction by Fluo-4 AM staining-based fluorescence assay
T4 sequence (P08173 whole entry): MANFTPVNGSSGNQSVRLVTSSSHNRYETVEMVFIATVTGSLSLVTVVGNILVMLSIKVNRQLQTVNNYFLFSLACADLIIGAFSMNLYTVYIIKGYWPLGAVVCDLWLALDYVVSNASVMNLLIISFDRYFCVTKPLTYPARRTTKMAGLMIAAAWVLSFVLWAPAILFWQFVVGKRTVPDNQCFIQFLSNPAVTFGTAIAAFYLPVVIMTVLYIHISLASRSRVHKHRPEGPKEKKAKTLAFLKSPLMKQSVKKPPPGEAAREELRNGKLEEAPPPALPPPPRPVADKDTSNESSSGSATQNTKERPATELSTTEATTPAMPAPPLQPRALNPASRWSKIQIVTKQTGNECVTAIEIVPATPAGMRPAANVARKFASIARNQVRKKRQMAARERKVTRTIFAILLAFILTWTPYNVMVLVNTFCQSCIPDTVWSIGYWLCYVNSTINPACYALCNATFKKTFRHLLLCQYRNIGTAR

[6] = molecular target: Muscarinic acetylcholine receptor M3 (Rattus norvegicus, UniProt P08483); experiment: Negative allosteric modulation of rat muscarinic acetylcholine receptor M3 expressed in CHO cells assessed as inhibition of acetylcholine-induced calcium mobilization incubated for 150 secs prior to acetylcholine induction by Fluo-4 AM staining-based fluorescence assay
Chain of Muscarinic acetylcholine receptor M3 (Rattus norvegicus, UniProt P08483) (P08483 whole entry): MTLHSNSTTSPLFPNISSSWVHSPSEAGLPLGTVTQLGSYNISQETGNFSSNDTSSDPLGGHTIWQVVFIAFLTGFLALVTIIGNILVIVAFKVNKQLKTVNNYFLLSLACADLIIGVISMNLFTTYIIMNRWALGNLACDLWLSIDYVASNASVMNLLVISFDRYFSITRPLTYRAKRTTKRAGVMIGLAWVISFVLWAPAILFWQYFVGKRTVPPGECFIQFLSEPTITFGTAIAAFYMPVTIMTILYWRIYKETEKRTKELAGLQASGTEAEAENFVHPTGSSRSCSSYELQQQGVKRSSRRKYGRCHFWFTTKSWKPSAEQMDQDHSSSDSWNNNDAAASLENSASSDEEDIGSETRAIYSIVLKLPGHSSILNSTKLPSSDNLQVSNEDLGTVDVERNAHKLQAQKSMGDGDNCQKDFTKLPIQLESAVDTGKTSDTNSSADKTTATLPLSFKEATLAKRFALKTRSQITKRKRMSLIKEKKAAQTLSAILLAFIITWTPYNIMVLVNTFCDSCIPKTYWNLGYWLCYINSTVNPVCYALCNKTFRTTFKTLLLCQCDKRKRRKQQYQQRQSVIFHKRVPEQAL

[7] = molecular target: T5, Muscarinic acetylcholine receptor M4 (Rattus norvegicus, UniProt P08485); experiment: Negative allosteric modulation of rat muscarinic acetylcholine receptor M4 expressed in CHO cells assessed as inhibition of acetylcholine-induced calcium mobilization incubated for 150 secs prior to acetylcholine induction by Fluo-4 AM staining-based fluorescence assay
T5 sequence (P08485 whole entry): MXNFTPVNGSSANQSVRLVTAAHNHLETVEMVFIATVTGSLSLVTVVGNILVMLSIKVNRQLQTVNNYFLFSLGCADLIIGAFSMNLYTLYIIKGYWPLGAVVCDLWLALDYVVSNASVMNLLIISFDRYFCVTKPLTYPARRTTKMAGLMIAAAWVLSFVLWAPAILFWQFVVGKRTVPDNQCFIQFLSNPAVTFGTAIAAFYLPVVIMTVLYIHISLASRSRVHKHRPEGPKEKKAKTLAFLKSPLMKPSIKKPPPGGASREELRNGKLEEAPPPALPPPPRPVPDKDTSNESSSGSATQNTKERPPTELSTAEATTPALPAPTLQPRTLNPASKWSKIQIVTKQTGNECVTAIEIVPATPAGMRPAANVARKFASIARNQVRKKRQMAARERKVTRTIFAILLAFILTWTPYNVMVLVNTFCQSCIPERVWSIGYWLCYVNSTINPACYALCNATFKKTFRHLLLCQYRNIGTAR

Measured: IC50

O=C(c1ccc(F)c(F)c1)N1CCN2C(=O)c3ccccc3C12c1ccccc1 (centres undefined)
> 30 µM: all assays above

O=C(c1ccc(F)c(F)c1)N1CCN2C(=O)c3ccccc3[C@@]12c1ccc(Cl)cc1
> 30 µM: all assays above
